Patent publication US20160145247A1, “Aminomethyl-Biaryl Derivatives Complement Factor D inhibitors and uses thereof” (NOVARTIS AG, priority 2013, published 2016)

Each compound was assayed against T1, factor D (Homo sapiens, UniProt P00746) (assay: factor D inhibition assay of Biological Example 2).
T1 construct: made in house; host or cells: E. coli
Format: biochemical

T1 sequence (P00746 26-253): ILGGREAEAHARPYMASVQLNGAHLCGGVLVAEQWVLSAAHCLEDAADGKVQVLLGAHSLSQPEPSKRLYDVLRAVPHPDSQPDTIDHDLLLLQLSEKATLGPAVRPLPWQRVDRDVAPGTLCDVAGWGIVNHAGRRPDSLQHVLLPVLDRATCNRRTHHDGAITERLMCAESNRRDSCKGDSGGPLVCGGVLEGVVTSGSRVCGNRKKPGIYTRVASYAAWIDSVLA

Structure (SMILES) | IC50 [nM]
Cc1ccc(CC(=O)O)c(NC(=O)c2cccc(-c3cc(F)cc(CN)c3)n2)c1 [Example 21-M] | 22
NC(CCO)c1cccc(-c2cccc(C(=O)Nc3ccccc3CC(=O)O)c2)c1 (racemic) [Example 87, (±)-2-(2-(3′-(1-amino-3-hydroxypropyl)-[1,1′-biphenyl]-3-ylcarboxamido)phenyl)acetic acid] | 814
C[C@@H](N)c1cccc(-c2cc(CNc3ccn(C)n3)cc(COc3ccccc3CC(=O)O)c2)c1F [Example 216-AF] | 16
NCc1nccc(-c2cccc(COc3ccccc3CC(=O)O)c2)n1 [Example 142-J] | 67
CC(C)C(=O)Nc1cc(C(=O)Nc2ccccc2CC(=O)O)cc(-c2cc(F)cc(CN)c2)c1 [Example 97, 2-(2-(3′-(Aminomethyl)-5′-fluoro-5-isobutyramido-[1,1′-biphenyl]-3-ylcarboxamido)phenyl)acetic acid] | 45
C[C@@H](N)c1cccc(-c2cc(CNCC(F)(F)F)cc(COc3ccccc3CC(=O)O)c2)c1F [Example 285-B] | 58
NCc1cc(F)cc(-c2cc(OC[C@@H]3CCCO3)cc(C(=O)Nc3ccccc3CC(=O)O)c2)c1 [Example 15-B, (S)-2-(2-(3′-(Aminomethyl)-5′-fluoro-5-((tetrahydrofuran-2-yl)methoxy)-[1,1′-biphenyl]-3-ylcarboxamido)phenyl)acetic acid] | 9
C[C@@H](N)c1cccc(-c2cc(COc3ccccc3CC(=O)O)cc(N(C)CC(F)F)c2)c1F [Example 216-N] | 24
N#Cc1ccc(COc2ccccc2CC(=O)O)cc1-c1cccc(CN)c1 [Example 289, 2-(2-((3′-(aminomethyl)-6-cyano-[1,1′-biphenyl]-3-yl)methoxy)phenyl)acetic acid] | 850
C[C@@H]1CN(Cc2cc(COc3ccccc3CC(=O)O)cc(-c3cccc([C@@H](C)N)c3F)c2)C[C@H](C)O1 [Example 216-AH] | 90
C[C@@H](N)c1cccc(-c2cc(N)c(F)c(COc3ccccc3CC(=O)O)c2)c1F [Example 221 a), (R)-2-(2-((5-amino-3′-(1-aminoethyl)-2′,4-difluoro-[1,1′-biphenyl]-3-yl)methoxy)phenyl)acetic acid] | 6
NCc1cc(-c2cccc(COc3ccccc3CC(=O)O)c2)ccn1 [Example 138-G] | 12
C[C@@H](N)c1cccc(-c2cc(CCCF)cc(COc3ccccc3CC(=O)O)c2)c1 [Example 271, (R)-2-(2-((3′-(1-aminoethyl)-5-(3-fluoropropyl)-[1,1′-biphenyl]-3-yl)methoxy)phenyl)acetic acid] | 10
COc1c(C(=O)Nc2ccccc2CC(=O)O)cccc1-c1cccc(CN)c1 [Example 91, 2-(2-(3′-(Aminomethyl)-2-methoxy-[1,1′-biphenyl]-3-ylcarboxamido)phenyl)acetic acid] | 22300
C[C@@H](N)c1cccc(-c2cc(COc3ccccc3CC(=O)O)cc(C(O)C(F)(F)F)c2)c1 (mixture of isomers) [116-H a), 2-(2-((3′-((R)-1-aminoethyl)-5-(2,2,2-trifluoro-1-hydroxyethyl)-[1,1′-biphenyl]-3-yl)methoxy)phenyl)acetic acid] | 1
NCc1cccc(-c2cccc(S(=O)(=O)Nc3ccccc3CC(=O)O)c2)c1 [Example 48, 2-(2-(3′-(Aminomethyl)-[1,1′-biphenyl]-3-ylsulfonamido)phenyl)acetic acid] | 2890
N[C@H](CC(F)(F)F)c1cccc(-c2cccc(COc3ccccc3CC(=O)O)c2)c1 [Example 196-H] | 1180
NCc1cccc(-c2cc(C(=O)Nc3ccccc3CC(=O)O)ccn2)c1 [Example 38, 2-(2-(2-(3-(Aminomethyl)phenyl)isonicotinamido)phenyl)acetic acid] | 14300
NCc1cccc(-c2cc(-c3ccccc3)cc(C(=O)Nc3ccccc3CC(=O)O)n2)c1 [Example 52, 2-(2-(6-(3-(Aminomethyl)phenyl)-4-phenylpicolinamido)phenyl)acetic acid] | 7
NCc1cccc(-c2cc(OCc3ncccn3)cc(C(=O)Nc3ccccc3CC(=O)O)c2)c1 [Example 61-B, 2-(2-(3′-(Aminomethyl)-5-(pyrimidin-2-ylmethoxy)-[1,1′-biphenyl]-3-ylcarboxamido)phenyl)acetic acid] | 32
N[C@H](CO)c1cccc(-c2cc(COc3ccccc3CC(=O)O)c(F)c(NCC3CCCO3)c2)c1 (stereo partly drawn) [155 b), 2-(2-((3′-((S)-1-Amino-2-hydroxyethyl)-4-fluoro-5-(((tetrahydrofuran-2-yl)methyl)amino)-[1,1′-biphenyl]-3-yl)methoxy)phenyl)acetic acid] | 4
NCc1cc(F)cc(-c2cccc(C(=O)Nc3c(Br)cccc3CC(=O)O)n2)c1 [Example 21-E] | 86
COCCNc1cc(COc2ccccc2CC(=O)O)cc(-c2cccc([C@@H](C)N)c2F)c1 [Example 223-B, (R)-2-(2-((3′-(1-aminoethyl)-2′-fluoro-5-((2-methoxyethyl)amino)-[1,1′-biphenyl]-3-yl)methoxy)phenyl)acetic acid] | 9
CC(C)Nc1cc(COc2ccccc2CC(=O)O)cc(-c2cccc([C@@H](C)N)c2F)c1 [Example 152, (R)-2-(2-((3′-(1-aminoethyl)-2′-fluoro-5-(isopropylamino)-[1,1′-biphenyl]-3-yl)methoxy)phenyl)acetic acid] | 11

Structure (SMILES) | IC50 [nM]
C[C@@H](N)c1cccc(-c2cc(COc3ccccc3CC(=O)O)cc(OCc3ccccn3)c2)c1F [Example 213, (R)-2-(2-((3′-(1-Aminoethyl)-2′-fluoro-5-(pyridin-2-ylmethoxy)-[1,1′-biphenyl]-3-yl)methoxy)phenyl)acetic acid] | 5
N[C@H](CO)c1cccc(-c2cc(COc3ccccc3CC(=O)O)cc(C(F)(F)F)c2)c1 [Example 114-B, (S)-2-(2-((3′-(1-Amino-2-hydroxyethyl)-5-(trifluoromethyl)-[1,1′-biphenyl]-3-yl)methoxy)phenyl)acetic acid] | 6
NCc1cccc(-c2cc(OCc3ccncc3)cc(C(=O)Nc3ccccc3CC(=O)O)c2)c1 [Example 62, 2-(2-(3′-(Aminomethyl)-5-(pyridin-4-ylmethoxy)-[1,1′-biphenyl]-3-ylcarboxamido)phenyl)acetic acid] | 54
CCNc1cc(COc2ccccc2CC(=O)O)cc(-c2cccc([C@H](N)CO)c2)c1 [Example 129, (S)-2-(2-((3′-(1-Amino-2-hydroxyethyl)-5-(ethylamino)-[1,1′-biphenyl]-3-yl)methoxy)phenyl)acetic acid] | 9
C[C@@H](N)c1cccc(-c2cccc(COc3ccccc3CC(=O)O)c2)c1Cl [Example 142-A] | 346
NCc1cc(-c2cc(COc3ccccc3CC(=O)O)cc(OC[C@H]3CCCO3)c2)ccn1 [Example 138-A] | 2
C[C@@H](N)c1cccc(-c2cc(COc3ccccc3CC(=O)O)cc(CN3CCCOCC3)c2)c1F [Example 216-AI] | 24
NCc1cccc(-c2cc(N3CCOCC3)cc(C(=O)Nc3ccccc3CC(=O)O)n2)c1 [Example 44, 2-(2-(6-(3-(Aminomethyl)phenyl)-4-morpholinopicolinamido)phenyl)acetic acid] | 9
CCOc1cc(COc2ccccc2CC(=O)O)cc(-c2cccc([C@@H](C)N)c2F)c1 [Example 256-B, (R)-2-(2-((3′-(1-Aminoethyl)-5-ethoxy-2′-fluoro-[1,1′-biphenyl]-3-yl)methoxy)phenyl)acetic acid] | 3
C[C@@H](N)c1cccc(-c2cc(Br)cc(COc3ccccc3CC(=O)O)c2)c1F [Example 120-U] | 12
N[C@H](CO)c1cccc(-c2cc(COc3ccccc3CC(=O)O)cc(NCC3CC3)c2)c1 [Example 128-C, (S)-2-(2-((3′-(1-Amino-2-hydroxyethyl)-5-((cyclopropylmethyl)amino)-[1,1′-biphenyl]-3-yl)methoxy)phenyl)acetic acid] | 3
CC(O)c1cc(COc2ccccc2CC(=O)O)cc(-c2cccc([C@H](C)N)c2F)c1 (some centres unmarked) [Example 120-J] | 23
NCc1cccc(-c2cccc(COc3ccccc3CC(=O)O)c2)c1Cl [Example 142-B] | 77
N=C(N)c1cccc(-c2cccc(C(=O)Nc3ccccc3CC(=O)O)c2)c1 [Example 10-B, 2-(2-(3′-Carbamimidoyl-[1,1′-biphenyl]-3-ylcarboxamido)phenyl)acetic acid] | 396
Cc1ccc(COc2ccccc2CC(=O)O)cc1-c1cccc([C@@H](C)N)c1 [Example 116-M] | 1230
C[C@@H](N)c1cccc(-c2cc(COc3ccccc3CC(=O)O)cc(CC3CCOCC3)c2)c1F [Example 246-C, (R)-2-(2-((3′-(1-aminoethyl)-2′-fluoro-5-((tetrahydro-2H-pyran-4-yl)methyl)-[1,1′-biphenyl]-3-yl)methoxy)phenyl)acetic acid] | < 1
C[C@@H](N)c1cccc(-c2cc(COc3ccccc3CC(=O)O)cc(NC3CCCC3)c2)c1F [Example 216-U] | 5
N[C@H](CO)c1cccc(-c2cc(Cl)cc(COc3ccccc3CC(=O)O)c2)c1 [Example 108-B, (S)-2-(2-((3′-(1-Amino-2-hydroxyethyl)-5-chloro-[1,1′-biphenyl]-3-yl)methoxy)phenyl)acetic acid] | 7
CNc1cc(COc2ccccc2CC(=O)O)cc(-c2cccc([C@H](N)CO)c2)c1 [Example 131, (S)-2-(2-((3′-(1-Amino-2-hydroxyethyl)-5-(methylamino)-[1,1′-biphenyl]-3-yl)methoxy)phenyl)acetic acid] | 18
C[C@@H](N)c1cccc(-c2cc(COc3ccccc3CC(=O)O)cc(CN3CCCC3)c2)c1F [Example 216-AJ] | 460
CCC[C@@H](N)c1cccc(-c2cc(COc3ccccc3CC(=O)O)cc(NCC3CC3)c2)c1F [Example 199-B] | 69
C[C@@H](N)c1cccc(-c2cc(COc3ccccc3CC(=O)O)cc(OCC3CC3)c2)c1F [Example 148, (R)-2-(2-((3′-(1-Aminoethyl)-5-(cyclopropylmethoxy)-2′-fluoro-[1,1′-biphenyl]-3-yl)methoxy)phenyl)acetic acid] | 9
N[C@H](CO)c1cccc(-c2cccc(COc3ccccc3CC(=O)O)c2)c1F [Example 142-E] | 8
